In PubChem BioAssay AID179 (DTP/NCI, 2004):
Active and inactive are the calls of the source.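 Rule for the calls: active = compounds giving half or more protection of infected cells from virus-caused growth loss, again on retest; inactive = the rest.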 Where a SMILES comes first, the peptide text is derived from it. The star is where a group is joined. Myristoyl = CCCCCCCCCCCCCC(=O)*; Cbz = O=C(OCc1ccccc1)*

Tested on: CEM cells HIV-1 protection, formazan growth assay
Assay: NCI AIDS Antiviral Assay
Settings: for IC50: measured here: growth of uninfected CEM cells
How it was run: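 Human CEM cells, uninfected and HIV-1-infected, received five drug concentrations, and growth was read by soluble formazan assay. Compounds giving at least 50% protection were retested; reproducible 100% protection defined confirmed active.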

SMILES	EC50 [µM]	IC50 [µM]	outcome
COc1cc(-c2cc(-c3ccccc3)nc(-c3c(OC)ccc4c(C)cc(=O)oc34)c2)cc(OC)c1OC	> 200	> 200	–
C=C1SC(=Nc2cccc(OC)c2)N(c2nc(Cl)nc(Cl)n2)C1(C)C	> 112	20	–
CN(C)CCNc1ccc(CO)c2oc3ccc(O)cc3c(=O)c12	> 398	1.15	–
COc1ccc(/C=N/Nc2nnc3c4ccccc4c4ncccc4c3n2)cc1	> 501	> 501	–
Nc1c(S(=O)(=O)O)cc(S(=O)(=O)O)c2ccc(N=Nc3ccc(CCc4ccc(N=Nc5ccc6c(S(=O)(=O)O)cc(S(=O)(=O)O)c(N)c6c5O)cc4S(=O)(=O)O)c(S(=O)(=O)O)c3)c(O)c12	8.13	138	–
O=C(O)CCSC(=O)Nc1cccc(F)c1	–	–	inactive
Cc1ccc(S(=O)(=O)OC2C3CC4C(=O)OC2C4C3)cc1 (centres undefined)	126	> 200	–
C=C(Br)C[N+](CC)(CC)CC	> 200	> 200	–
Clc1ccc(-c2cn3c(nc4ccccc43)c(-c3ccccc3)n2)cc1	> 200	72.4	–
Cc1ccc2c(c1)C(=O)N(N(C)C)CC(=O)N2	–	–	inactive
COc1ccc(C2c3[nH]c4ccccc4c3CCN2O)cc1 (centres undefined)	–	–	inactive
CC(NC(=O)c1ccccc1SC(=O)CCC[n+]1ccccc1)C(N)=O (centres undefined)	2.24	19.1	–
CC(C)/C=C/C1=C(O)c2ccccc2C(=O)C1=O	–	–	inactive
O=[N+]([O-])c1ccc2c3c(cccc13)S(=O)(=O)O2	> 200	85.1	–
OCCCCCCOc1ccc(-c2cc(-c3ccccn3)nc(-c3ccccn3)c2)cc1	> 12.3	1.91	–
Cc1ccc(C)c(C[P+](c2ccccc2)(c2ccccc2)c2ccccc2)c1	> 200	0.977	–
COC(=O)C1CCCN1 (centres undefined)	–	–	inactive
CN(C)c1ccc(/C=C2\C=Cc3ccccc32)cc1Br	> 8.32	> 8.32	–
CCCCCCCN(O)CC1OC(n2ccc(=O)[nH]c2=O)C(O)C1O (centres undefined)	> 200	141	–
Cc1cn(C2CC(O)C(CNC(=O)N(O)C3CC(n4cc(C)c(=O)[nH]c4=O)OC3CO)O2)c(=O)[nH]c1=O (centres undefined)	> 200	> 200	–

SMILES	EC50 [µM]	IC50 [µM]	outcome
Cc1cn(C2CC(Sc3ccccn3)C(CO)O2)c(=O)[nH]c1=O (centres undefined)	> 372	316	–
COC(=O)Cc1cc(O)c2c(c1O)C(=O)c1ccccc1C2=O	–	–	inactive
COc1ccccc1C1=NC(C)(C)CO1	> 1230	> 1230	–
O=C1[C@@H]2C3c4ccccc4C([C@@H]2C(=O)N1c1ccccc1)S3(=O)=O	–	–	inactive
Cc1cc2c(C(C)C)c(O)c(O)c(/C=N\O)c2c(O)c1-c1c(C)cc2c(C(C)C)c(O)c(O)c(/C=N/O)c2c1O	> 200	10	–
O=C(Nc1ccc(Cl)cc1)c1cc2cc(N=Nc3ccc(Br)cc3)ccc2oc1=O	–	–	inactive
O=C1c2ccccc2OC(Cl)(c2ccccc2)C1Cl (centres undefined)	> 200	31.6	–
C=C1CCC2C(C)(CO)C(O)CCC2(C)C1C/C=C1/CCOC1=O (centres undefined)	–	–	inactive
COc1cc(NCc2ccc3nc(-c4ccccc4)c(N)nc3c2)cc(OC)c1OC	> 200	49	–
CCn1nc(C)c2c1C(=O)NCC(=O)N2	> 200	> 200	–
CCOC(=O)CC1(c2cccc3ccccc23)OC(=O)c2ccccc21 (centres undefined)	–	–	inactive
Oc1ccc2ccccc2c1C1=NNC(c2ccc(Cl)cc2)C1 (centres undefined)	> 200	40.7	–
Cn1nc(NC(=O)c2cc(N)nn2C)cc1C(=O)Nc1ccc2cc(S(=O)(=O)O)cc(S(=O)(=O)O)c2c1	> 200	> 200	–
COc1cc(OC)c2ccc(=O)oc2c1	> 91.2	> 91.2	–
CC(CCc1ccc2c(c1)c(=N)c1ccc(N)cc1n2O)CC(C)(C)C (centres undefined)	–	–	inactive
CC(=O)CC(C)=O.CCN(CC)CC[C-]=O.[Pd+2]	> 200	5.89	–
O=S(=O)(Nc1nnc2c3ccccc3cnn12)c1ccc(Cl)cc1S	36.3	490	–
C1=C(c2ccccc2)CN(c2ccccc2)OC1	> 57.5	> 57.5	–
C/C(=N\NS(=O)(=O)c1ccc(C)cc1)c1cc2ccccc2n1C	> 79.4	> 79.4	–
O=C1CCC2CCC1C2 (centres undefined)	> 200	> 200	–

SMILES	EC50 [µM]	IC50 [µM]	outcome
CN(C)C(=O)Nc1cc2c3c(c1)CCCN3CCC2	81.3	174	–
COc1cc(Cc2cc3c(c(C(=O)O)c2Br)OCO3)cc(OC)c1OC	> 200	44.7	–
CC1(C)SCC(COC(=O)c2ccccc2)S1 (centres undefined)	> 200	> 200	–
O=C(c1cccc(C(=O)N(c2ccccc2)c2ccccc2)n1)N(c1ccccc1)c1ccccc1	> 11.2	> 11.2	–
COc1ccc(Cc2nnc3nc(OC)c(-c4ccc(OC)cc4)n3n2)cc1	> 50.1	> 50.1	–
CCOC(=O)CNC(=O)c1ccccc1SC(=O)CCCC[n+]1ccccc1	> 20	0.363	–
CCOC(=O)CCC(NC(=O)OCc1ccccc1)C(=O)NC(CC(=O)OC)C(=O)NC(CC(=O)OC)C(=O)NC(CCC(=O)OCC)C(=O)OCC (centres undefined) (Cbz-E(OEt)D(OMe)D(OMe)E(OEt)-OEt; configuration not given here)	> 50.1	> 50.1	–
Cc1c(C#N)c2nnn(-c3ccccc3)c(=O)n2c1-c1ccccc1	> 200	1.02	–
O=C(Nc1ccc(C2=NCCN2)c(O)c1)c1ccc(C(=O)Nc2ccc(C3=NCCN3)c(O)c2)cc1	95.5	> 200	–
CC1(C)CNC(=O)C2(C=NC(C)(C)CNC(=O)C3(C=N1)CCCO3)CCCO2 (centres undefined)	> 25.1	> 25.1	–
COc1cc(OC)c2c(=O)c3cccc(O)c3oc2c1	> 200	> 200	–
S=C(c1c[nH]c2ccccc12)N1CCN(c2ccccc2)CC1	> 200	158	–
CCCCCCCCCCCCCC(=O)NCC(=O)NC(C)C(=O)NC(CCCNC(=N)N)C(=O)NC(C)C(=O)NC(CO)C(=O)NC(C(=O)NC(CC(C)C)C(=O)NC(CO)C(=O)NCC(=O)NCC(=O)NC(CCC(=O)O)C(=O)NC(CC(C)C)C(=O)NC(CC(=O)O)C(=O)NC(CCCNC(=N)N)C(=O)NC(Cc1c[nH]c2ccccc12)C(=O)NC(Cc1ccc(O)cc1)C(N)=O)C(C)C (centres undefined) (Myristoyl-GARASVLSGGELDRWY-NH2; configuration not given here)	> 129	> 129	–
C/C(CC(=O)CCC(=O)Nc1cccc(C(F)(F)F)c1)=N\NC(=O)NN	> 10	> 10	–
COc1cc(C)cc2c(-c3c(O)cc(O)c4c3CC(C)N[C@H]4C)cc(-c3cc(-c4c(O)cc(O)c5c4CC(C)N[C@H]5C)c4cc(C)cc(OC)c4c3O)c(O)c12 (some centres undefined)	38	166	–
O=C1/C(=C\Oc2ccc(F)cc2)N2CCC1CC2	> 200	102	–
C=CCn1c2c(c3ccccc3c1=O)C(=O)c1ccccc1-2	> 91.2	> 91.2	–
O=S(=O)(O)CCCCS(=O)(=O)O	> 200	> 200	–
CCOC(=O)c1cnccc1CC1(C#N)c2ccccc2C=CN1C(=O)c1ccccc1 (centres undefined)	> 200	17.8	–
S=c1sc2c(s1)SCc1cccc(n1)CSc1sc(=S)sc1SCc1cccc(n1)CS2	> 200	> 200	–
